Assay results published in patent US20230192598A1, “NOVEL MODIFIED TETRACYCLINES FOR TREATMENT OF ALCOHOL USE DISORDER, PAIN AND OTHER DISORDERS INVOLVING POTENTIAL INFLAMMATORY PROCESSES” (Texas Tech University System, priority 2020, published 2023).
Entries after “also recorded” stand apart in the source; their conditions may differ.

What was measured:
[1] = system: E. coli cell culture; test: Antibacterial efficacy of CMM ether analogs (ZOI and CFU assays, Example 2); assay type: cell-based; conditions: for Anti-microbial action: Table 3
Excerpt: (§1) Purity and molecular formula verification of the CMM analogs were done using High Performance Liquid Chromatography (HPLC) Nuclear Magnetic Resonance spectroscopy (NMR) and Liquid Chromatography-Mass Spectrometry (LC-MS) after initial identification via Thin-layer Chromatography (TLC). Zone of inhibition (ZOI) and colony forming unit (CFU) assays were used to assess the antibacterial efficacy of our CMM analogs in E. coli cell culture. Drinking-in-the-Dark (DID) and Two-Bottle Choice (2BC) procedures were utilized in both female and male C57BL/6J mice to evaluate ethanol and water consumption. […] Butyl ether minocycline may be used for an AUD treatment.

[2] = system: C57BL/6J mice; test: Drinking in the Dark (DID) model of AUD, ethanol consumption; assay type: in vivo; conditions: for % DID: Table 3, ↓ = decrease of alcohol consumption; for reduction of ethanol consumption: by gavage, compared with i.p.
Excerpt: FIGS. 5A to 5C show, 5A) CMMs reduced acute ethanol consumption in the Drinking in the Dark model of AUD. MINO, DeDiAc, and TRI reduced ethanol consumption by over 50% by intraperitoneal injection (Left). […] 5B) Dose response curve for DeDIAc in female mice by gavage. 5C) Dose response curve for DeDIAc in male mice by gavage. MINO=minocycline, BeMAc=Butyl ether monoacetate minocycline, DeDiAc=De amino di acetyl minocycline, TRI=Tri acetyl minocycline. *p<0.05 compared to controls.
as §1

[3] = cited from earlier work
[4] = system: AUD traits; conditions: seven tetracyclines tested (Syapin et al. 2016); cited from earlier work
[5] = system: E. coli; test: Zone of inhibition assay; assay type: cell-based; conditions: 24 hour cell culture
Excerpt: (§2) MINO=minocycline, BeMAc=Butyl ether monoacetate minocycline, DeDiAc=De amino di acetyl minocycline, TRI=Tri acetyl minocycline.
as §1

[6] = system: E. coli; test: Colony forming unit assay, antibacterial; assay type: cell-based; conditions: 24 hour cell culture
Excerpt: as §2, §1

[7] = butyl ether minocycline 100 mg/kg, i.p.

Row | Compound | Anti-microbial action [1] | % DID [2, 7] | LogD [3] | LogP [3] | reduction of ethanol consumption ([2]; Drinking in the Dark) | other results
1 | CCCCOc1ccc(N(C)C)c2c1C(=O)C1=C(O)C3(O)C(=O)C(C(N)=O)=C(O)C(N(C)C)C3CC1C2.Cl (stereo not drawn) [Butyl Ether Minocycline HCl, 10-Butoxy-4,7-bis-dimethylamino-3,12,12a-trihydroxy-1,11-dioxo-1,4,4a,5,5a,6,11,12a-octahydro-naphthacene-2-carboxylic acid amide hydrochloride] | ND 64 mg/ml | 85% | – | – | – | antibiotic / antimicrobial activity (in words) ([1]; Example 2, compared to minocycline): lost antibiotic activity; alcohol consumption (in words) ([2]; Example 2, butyl ether minocycline 100 mg/kg, i.p., hydrochloride): significantly reduced alcohol consumption; also recorded: greatest reduction in alcohol consumption
2 | CN(C)[C@@H]1C(O)=C(C(N)=O)C(=O)[C@@]2(O)C(O)=C3C(=O)c4c(O)ccc(Cl)c4[C@@H](O)[C@H]3C[C@@H]12 [Demeclocycline] | – | – | −3.40 | −1.07 | – | –
3 | C[C@H]1c2cccc(O)c2C(=O)C2=C(O)[C@]3(O)C(=O)C(C(N)=O)=C(O)[C@@H](N(C)C)[C@@H]3[C@@H](O)[C@@H]21 [Doxycycline] | – | – | −3.29 | −0.54 | – | effectiveness against AUD traits [4]: effective
4 | CCOc1ccc(N(C)C)c2c1C(=O)C1=C(O)C3(O)C(=O)C(C(N)=O)=C(O)C(N(C)C)C3CC1C2.Cl (stereo not drawn) [Ethyl Ether Minocycline HCl, 4,7-Bis-dimethylamino-10-ethoxy-3,12,12a-trihydroxy-1,11-dioxo-1,4,4a,5,5a,6,11,12a-octahydro-naphthacene-2-carboxylic acid amide hydrochloride] | >2 mg/mL | 50% | – | – | – | –
5 | COc1ccc(N(C)C)c2c1C(=O)C1=C(O)C3(O)C(=O)C(C(N)=O)=C(O)C(N(C)C)C3CC1C2.Cl (stereo not drawn) [Methyl Ether Minocycline HCl, 4,7-Bis-dimethylamino-3,12,12a-trihydroxy-10-methoxy-1,11-dioxo-1,4,4a,5,5a,6,11,12a-octahydro-naphthacene-2-carboxylic acid amide hydrochloride] | >16 mg/mL | 40% | – | – | – | –
6 | CN(C)c1ccc(O)c2c1CC1CC3C(N(C)C)C(O)=C(C(N)=O)C(=O)C3(O)C(O)=C1C2=O.Cl (stereo not drawn) [Minocycline HCl, 4,7-Bis-dimethylamino-3,10,12,12a-tetrahydroxy-1,11-dioxo-1,4,4a,5,5a,6,11,12a-octahydro-naphthacene-2-carboxylic acid amide hydrochloride, reference compound] | >0.125 mg/mL | 75% | – | – | – | –
7 | CN(C)c1ccc(O)c2c1C[C@H]1C[C@H]3[C@H](N(C)C)C(=O)C(C(N)=O)=C(O)[C@@]3(O)C(=O)C1=C2O [Minocycline, reference compound] | – | – | – | – | reduced ethanol consumption to a lesser degree | effectiveness against AUD traits [4]: effective
8 | CN(C)[C@@H]1C(O)=C(C(N)=O)C(=O)[C@@]2(O)C(O)=C3C(=O)c4c(O)cccc4[C@@](C)(O)[C@H]3[C@H](O)[C@@H]12 [Oxytetracycline] | – | – | −4.25 | −1.5 | – | –
9 | CCCOc1ccc(N(C)C)c2c1C(=O)C1=C(O)C3(O)C(=O)C(C(N)=O)=C(O)C(N(C)C)C3CC1C2.Cl (stereo not drawn) [Propyl Ether Minocycline HCl, 4,7-Bis-dimethylamino-3,12,12a-trihydroxy-1,11-dioxo-10-propoxy-1,4,4a,5,5a,6,11,12a-octahydro-naphthacene-2-carboxylic acid amide hydrochloride] | >4 mg/mL | 50% | – | – | – | –
10 | CN(C)c1cc(NC(=O)CNC(C)(C)C)c(O)c2c1C[C@H]1C[C@H]3[C@H](N(C)C)C(O)=C(C(N)=O)C(=O)[C@@]3(O)C(O)=C1C2=O [Tigecycline] | – | – | −2.73 | −1.30 | – | effectiveness against AUD traits [4]: effective
11 | Butyl ether monoacetate minocycline [BeMAc] | – | – | – | – | reduced ethanol consumption to a lesser degree | –
12 | De amino di acetyl minocycline [DeDiAc] | – | – | – | – | reduced ethanol consumption to a lesser degree | antibacterial action, zone of inhibition [5]: loss of antibiotic activity; ethanol consumption (in words) ([2]; Example 1, Drinking in the Dark, intraperitoneal and oral administration): significantly reduced ethanol consumption; antibacterial action, colony forming units [6]: loss of antibiotic activity
13 | Tri acetyl minocycline | – | – | – | – | reduced ethanol consumption to a lesser degree | –
